Experimental findings from PMC6222614, “Disubstituted 4-Chloro-3-nitrophenylthiourea Derivatives: Antimicrobial and Cytotoxic Studies” (Molecules : A Journal of Synthetic Chemistry and Natural …, 2018) are described below.

One data set relates to MT-4 cells. The experiment in a line: Cytotoxicity against mock-infected MT-4 cells (MTT). It counts as cell-based, human. The note with it: concentration reducing viability of mock-infected MT-4 cells by 50%, 96 h. In short, it runs like this:
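Uninfected MT-4 cells (HTLV-1-transformed human CD4+ T cells) seeded at 1 × 10^5 cells/mL in RPMI-1640 with 10% FBS and grown with serially diluted compounds at 37 °C, 5% CO2. Viability read by MTT after 96 h.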

The subject of data set [1] is HaCaT cells. The data set can be described thus: Proliferation rate in cultures of HaCaT cells (trypan blue counting). It counts as cell-based, human. The note with it: lowest concentrations (8 µM for 11 and 13, 37 µM for 25), 48 h. How it is done:
(§1) Human immortal keratinocyte cell line from adult human skin (HaCaT) was purchased from American Type Culture Collection (Rockville, MD, USA), and cultured in Dulbecco’s Modified Eagle’s Medium (DMEM), supplemented with antibiotics (penicillin and streptomycin), 10% heat-inactivated FBS-fetal bovine serum (Gibco Life Technologies, Carlsbad, CA, USA) at 37 °C and 5% CO2 atmosphere. Cells were passaged using trypsin-EDTA (Gibco Life Technologies, Carlsbad, CA, USA) and cultured in 24-well plates (2.5 × 10^4 cells per well). Experiments were conducted in DMEM with 2% FBS.
After 48 h incubation with the lowest concentration of the tested compound the increased number of viable cells were assessed by direct counting of cells using trypan blue with a Countess Automated Cell Counter (Invitrogen, Carlsbad, CA, USA). The results are presented as a % of viable and dead cells versus control.

Data set [2] deals with HaCaT cells. The data set can be described thus: Cell viability in HaCaT cells (MTT mitochondrial reduction). It counts as cell-based, human. How it is done: as §1
The cell viability assay was assessed by the determination of MTT salt (3-(4,5-dimethylthiazol-2-yl)-2,5-diphenyltetrazolium bromide, Sigma-Aldrich Chemie, Buchs, Germany) conversion by mitochondrial dehydrogenase. […] Absorbance of solubilized formazan was measured spectrophotometrically at 570 nm (using Epoch microplate reader, BioTek Inc., Winooski, VT, USA, equipped with Gen5 software (BioTech Instruments, Inc., Biokom, Janki, Polska).
Cell viability was presented as a percent of MTT in the treated cells versus the control (cells incubated in serum-free DMEM without extracts). The relative MTT level (%) was calculated as [A]/[B] × 100, where [A] is the absorbance of the test sample and [B] is the absorbance of the control sample containing the untreated cells. […]

The test system of data set [3] is HaCaT cells. The experiment in a line: Lactate dehydrogenase (LDH) release assay in HaCaT cells. It counts as cell-based. The note with it: 24 h. As to the method: Cells were passaged using trypsin-EDTA (Gibco Life Technologies, Carlsbad, CA, USA) and cultured in 24-well plates (2.5 × 10^4 cells per well). Experiments were conducted in DMEM with 2% FBS.
Release of lactate dehydrogenase (LDH) from the cytosol to culture medium is a marker of cell death. The assay was performed after 24 h incubation of HaCaT cells in 24-well plates with investigated concentrations of each compound. The activity of LDH released from the cytosol of damaged cells to the supernatant was measured using the protocol of the cytotoxicity detection kit LDH test described by the manufacturer (Roche Diagnostics, Berlin, Germany). Absorbance was measured at 490 nm using a microplate reader (using Epoch microplate reader, BioTek Inc., Winooski, VT, USA) equipped with Gen5 software (BioTech Instruments, Inc., Biokom, Janki, Polska)
Compounds mediated cytotoxicity expressed as the LDH release (%) was determined by the following equation: [(A test sample—A low control)/(A high control—A low control)] × 100% (A-absorbance); where “low control” were cells in DMEM with 2% FBS without tested compounds, and “high control” were cells incubated in DMEM with 2% FBS with 10% Triton X-100 (100% LDH release).

The subject of the next data set is CRL7065. The data set can be described thus: Antiproliferative assay (MTT), normal cell line. It counts as cell-based, human. The following applies: normal foreskin fibroblasts, concentration reducing cell proliferation by 50%, 96 h. How it is done: (§2) Cell lines derived from human solid tumors were: Skin melanoma (SK-MEL-28); prostate carcinoma (DU-145). Normal tissues foreskin fibroblasts (CRL-7065) were also used. Cells were seeded at 1 × 10^5 cells/mL in 96 well plates in specific media supplemented with 10% FCS and antibiotics, as above. Cell cultures were then incubated at 37 °C in a humidified, 5% CO2 atmosphere in the absence or presence of serial dilutions of test compounds. Cell viability was determined after 96 h at 37 °C by the MTT method.

A further data set relates to CCRF-SB. The experiment in a line: Antiproliferative assay (MTT). It counts as cell-based, human. The note with it: concentration reducing cell proliferation by 50%, 96 h, mean of three determinations. As to the method: (§3) Cell lines derived from human hematological tumors were: CD4+ human T-cells containing an integrated HTLV-1 genome (MT-4); CD4+ human acute T-lymphoblastic leukemia (CCRF-CEM); human splenic B-lymphoblastoid cells (WIL-2NS); human acute B-lymphoblastic leukemia (CCRF-SB). Cells were seeded at an initial density of 1 × 10^5 cells/mL in 96 well plates in RPMI-1640 medium supplemented with 10% fetal calf serum (FCS), 100 units/mL penicillin G and 100 μg/mL streptomycin.
as §2

The next data set relates to MT-4. The experiment in a line: Antiproliferative assay (MTT). It counts as cell-based, human. The note with it: concentration reducing cell proliferation by 50%, 96 h, mean of three determinations. As to the method:
as §3, §2

A further data set deals with CCRF-CEM. The data set can be described thus: Antiproliferative assay (MTT). It counts as cell-based, human. The following applies: concentration reducing cell proliferation by 50%, 96 h, mean of three determinations. As to the method: as §3, §2
The next data set deals with WIL-2NS. The experiment in a line: Antiproliferative assay (MTT). It counts as cell-based, human. The following applies: concentration reducing cell proliferation by 50%, 96 h, mean of three determinations. As to the method: as §3, §2
Another data set relates to SK-MEL-28. The data set can be described thus: Antiproliferative assay (MTT). The note with it: skin melanoma, concentration reducing cell proliferation by 50%, 96 h. It counts as cell-based, human. As to the method: as §2
The next data set concerns DU145. The experiment in a line: Antiproliferative assay (MTT). It counts as cell-based, human. The following applies: prostate carcinoma, concentration reducing cell proliferation by 50%, 96 h. As to the method: as §2
In a further data set the test system is HIV-1 IIIB. The experiment in a line: Anti-HIV-1 activity: protection of MT-4 cells from virus-induced cytopathogenicity (MTT). It counts as cell-based, Human Immunodeficiency Virus type-1. The note with it: 50% protection of MT-4 cells from HIV-1 induced cytopathogenicity, MTT, 4-day incubation; read-out: HIV-1IIIB EC50. Put shortly: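 MT-4 cells (1 × 10^4/well) infected with HIV-1 IIIB at m.o.i. 0.01 (100 CCID50) in presence of serial compound dilutions. Protection from virus-induced cytopathogenicity measured by MTT viability after 4 days at 37 °C.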

Some results are limits rather than exact numbers.

Regarding `Cc1ccc(NC(=S)Nc2ccc(Cl)c([N+](=O)[O-])c2)cc1Cl` [Compound 13], the CC50 with MT-4 cells was 8 µM; in the data set with CRL7065 it was 16 µM; in the data set on CCRF-SB it was 6.7 µM; in the data set on MT-4, 8 µM; with CCRF-CEM, 4 µM; in the data set with WIL-2NS, 7.6 µM. The half-maximal cytotoxic concentration (CC50) in the data set on SK-MEL-28 was determined as 6 µM; in the data set on DU145 it was 7 µM. The “inhibition of viable cell proliferation” value with HaCaT cells [1] is 30–40%. For the same compound, the “cytotoxicity (MTT)” value with HaCaT cells [2] was found to be 50%. The “cell mortality (LDH release) increased to” value with HaCaT cells [3] was 30%. For the same compound, the “release of LDH” value in the data set with HaCaT cells [3] (concentrations 8 and 16 µM) was about 10%. Further, the EC50 in the data set on HIV-1 IIIB was over 8 µM.

As usually defined, the CC50 is the concentration giving 50% cytotoxicity. Low readings indicate harm at low concentration, high ones better tolerance by the cells. The EC50 is the concentration that produces a half-maximal response.
